SMILES strings stand for the structures.

Among the data in patent US20210038607A1, “OXADIAZOLYLTHIOPHENE DERIVATIVES USEFUL AS HISTONE DEACETYLASE INHIBITORS” (Karus Therapeutics Limited, priority 2018, published 2021) are IC50 values, retold here.

The target in assay [1] is T1, Human HDAC9 (Homo sapiens, UniProt Q9UKV0).
T1 construct: amino acids 604-1066 with C-terminal His tag; His (C); host or cells: baculovirus expression system
Nature of the assay: HDAC9 biochemical assay, class IIa-specific substrate. As to conditions: read-out: HDAC Isoform IC50 (nM) 9. Put shortly:
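HDAC9 residues 604-1066 (C-terminal His tag, baculovirus-expressed) at 0.06 ng/ul with 50 μM class IIa substrate Boc-Lys(trifluoroacetyl)-AMC in Tris-HCl pH 8.0 buffer with BSA and 1% DMSO. 30 min at room temperature, then developer added; fluorescence read at 360/460 nm Ex/Em.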

Assay [2] has as its target T2, Recombinant human HDAC6 (Homo sapiens, UniProt Q9UBN7).
T2 construct: full length, MW=159 kDa; GST (N); host or cells: Sf9 insect cells (baculovirus)
T2 sequence (Q9UBN7 1-1215): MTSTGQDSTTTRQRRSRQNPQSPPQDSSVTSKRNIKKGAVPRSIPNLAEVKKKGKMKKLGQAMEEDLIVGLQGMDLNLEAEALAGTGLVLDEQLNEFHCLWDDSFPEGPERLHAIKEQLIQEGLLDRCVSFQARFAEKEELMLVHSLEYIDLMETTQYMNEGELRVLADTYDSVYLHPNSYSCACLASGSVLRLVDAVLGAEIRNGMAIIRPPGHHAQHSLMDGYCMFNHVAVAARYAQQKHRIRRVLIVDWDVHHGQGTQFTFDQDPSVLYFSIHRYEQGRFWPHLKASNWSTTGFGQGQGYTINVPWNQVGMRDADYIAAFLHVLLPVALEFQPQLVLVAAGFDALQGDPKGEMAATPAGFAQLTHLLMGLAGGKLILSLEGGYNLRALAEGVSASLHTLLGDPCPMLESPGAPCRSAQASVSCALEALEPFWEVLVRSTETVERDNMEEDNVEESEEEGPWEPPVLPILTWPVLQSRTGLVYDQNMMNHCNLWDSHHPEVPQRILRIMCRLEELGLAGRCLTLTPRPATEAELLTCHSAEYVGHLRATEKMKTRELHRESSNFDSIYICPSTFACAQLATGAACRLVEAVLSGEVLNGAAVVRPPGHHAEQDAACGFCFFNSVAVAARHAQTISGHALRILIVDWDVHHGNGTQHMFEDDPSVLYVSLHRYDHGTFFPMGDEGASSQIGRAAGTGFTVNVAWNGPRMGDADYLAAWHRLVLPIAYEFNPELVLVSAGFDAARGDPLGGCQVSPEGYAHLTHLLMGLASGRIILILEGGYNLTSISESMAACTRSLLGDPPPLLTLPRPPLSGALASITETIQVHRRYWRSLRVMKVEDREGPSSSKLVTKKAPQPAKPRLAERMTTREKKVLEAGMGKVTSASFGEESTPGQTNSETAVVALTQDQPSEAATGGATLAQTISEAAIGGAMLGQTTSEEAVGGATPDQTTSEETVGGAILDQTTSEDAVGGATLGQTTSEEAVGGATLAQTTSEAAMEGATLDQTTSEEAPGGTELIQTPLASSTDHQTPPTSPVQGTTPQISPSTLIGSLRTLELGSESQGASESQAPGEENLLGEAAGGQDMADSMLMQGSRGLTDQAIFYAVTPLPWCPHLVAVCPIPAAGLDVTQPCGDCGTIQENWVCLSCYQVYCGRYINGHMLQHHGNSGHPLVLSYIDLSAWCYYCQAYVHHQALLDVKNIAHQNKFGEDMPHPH
Nature of the assay: HDAC6 biochemical assay, AMC-labeled peptide substrate. As to conditions: HDAC6; read-out: HDAC Isoform IC50 (nM) 6. Put shortly:
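Two-step fluorogenic read-out: enzyme deacetylates 50 μM RHKK(Ac)AMC for 1 h at 30° C in pH 8.0 Tris buffer with BSA and 1% DMSO, then developer cleavage gives signal at Ex 360/Em 460. Enzyme: 0.3 ng/ul recombinant full-length human HDAC6, GST-tagged, Sf9-expressed.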

The target of assay [3] is T3, Human HDAC4 (Homo sapiens, UniProt P56524).
T3 construct: amino acids 627-1085 with N-terminal GST tag; GST (N); host or cells: baculovirus expression system
Nature of the assay: HDAC4 biochemical assay, class IIa-specific substrate. As to conditions: read-out: HDAC Isoform IC50 (nM) 4. Put shortly: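 GST-tagged human HDAC4 (aa 627-1085, baculovirus) at 0.004 ng/ul was incubated 30 min at room temperature with 50 μM class IIa-specific substrate BOC-Lys(trifluoroacetyl)-AMC in Tris-HCl pH 8.0 buffer with BSA, 1% DMSO. Developer then released AMC, read at 360/460 nm.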

Assay [4] addresses T4, Complex of human HDAC3 and human NCOR2 (Homo sapiens, UniProt O15379).
T4 construct: full length with C-terminal His tag, MW=49.7 kDa; His (C); host or cells: baculovirus expression system (co-expressed)
Nature of the assay: HDAC3 biochemical assay, AMC-labeled peptide substrate. As to conditions: read-out: HDAC Isoform IC50 (nM) 3. Put shortly: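 Baculovirus-coexpressed His-tagged full-length HDAC3 with GST-NCOR2 (aa 395-489), 0.1 ng/ul, deacetylates 50 μM RHKK(Ac)AMC in Tris-HCl pH8.0 with BSA and 1% DMSO, 1 h at 30° C. Developer then cleaves deacetylated substrate; fluorescence read at 360/460 Ex/Em.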

T1 sequence (Q9UKV0 604-1066 isoform Q9UKV0-5): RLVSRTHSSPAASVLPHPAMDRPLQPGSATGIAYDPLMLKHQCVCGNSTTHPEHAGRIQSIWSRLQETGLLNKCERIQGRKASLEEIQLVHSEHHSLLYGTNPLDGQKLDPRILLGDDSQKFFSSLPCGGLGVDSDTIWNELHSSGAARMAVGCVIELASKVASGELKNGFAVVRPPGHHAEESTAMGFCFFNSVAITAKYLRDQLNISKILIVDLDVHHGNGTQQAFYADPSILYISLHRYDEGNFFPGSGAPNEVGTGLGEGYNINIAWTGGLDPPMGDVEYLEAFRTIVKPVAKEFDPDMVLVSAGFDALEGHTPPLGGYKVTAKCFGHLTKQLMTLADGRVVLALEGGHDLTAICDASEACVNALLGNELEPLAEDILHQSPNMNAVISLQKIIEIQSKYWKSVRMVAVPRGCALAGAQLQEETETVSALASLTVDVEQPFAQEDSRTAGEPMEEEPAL
T3 sequence (P56524 627-1084 limits assumed): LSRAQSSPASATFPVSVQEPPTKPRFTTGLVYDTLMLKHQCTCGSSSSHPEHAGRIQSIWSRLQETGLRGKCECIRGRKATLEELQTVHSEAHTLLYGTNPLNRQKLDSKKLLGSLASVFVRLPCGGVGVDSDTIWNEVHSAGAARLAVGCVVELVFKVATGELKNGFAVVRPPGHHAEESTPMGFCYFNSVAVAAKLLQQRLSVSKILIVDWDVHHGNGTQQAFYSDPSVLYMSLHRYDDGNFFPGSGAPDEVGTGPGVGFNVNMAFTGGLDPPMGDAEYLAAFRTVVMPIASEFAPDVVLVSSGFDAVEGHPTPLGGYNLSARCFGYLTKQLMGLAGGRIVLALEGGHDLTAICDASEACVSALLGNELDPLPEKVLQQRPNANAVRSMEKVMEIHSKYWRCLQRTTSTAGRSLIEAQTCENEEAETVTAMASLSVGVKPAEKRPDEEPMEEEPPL
T4 sequence (O15379 whole entry): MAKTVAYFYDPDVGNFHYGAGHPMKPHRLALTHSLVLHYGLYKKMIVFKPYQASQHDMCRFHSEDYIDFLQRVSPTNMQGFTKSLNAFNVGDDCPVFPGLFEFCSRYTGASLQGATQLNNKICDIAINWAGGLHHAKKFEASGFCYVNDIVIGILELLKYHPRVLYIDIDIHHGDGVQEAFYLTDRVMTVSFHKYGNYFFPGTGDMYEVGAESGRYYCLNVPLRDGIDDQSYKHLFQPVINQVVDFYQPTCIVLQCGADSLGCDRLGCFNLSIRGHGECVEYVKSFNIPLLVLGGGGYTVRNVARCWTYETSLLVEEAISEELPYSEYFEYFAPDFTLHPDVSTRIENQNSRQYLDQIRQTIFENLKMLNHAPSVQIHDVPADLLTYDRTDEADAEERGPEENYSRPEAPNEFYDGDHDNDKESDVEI
T4 sequence (Q9Y618 395-489 partner limits assumed): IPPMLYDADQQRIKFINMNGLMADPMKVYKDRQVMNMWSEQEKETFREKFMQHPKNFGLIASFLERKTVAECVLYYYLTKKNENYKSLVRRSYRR

For orientation: IC50 means the concentration at which inhibition is half-maximal. Take `O=C(c1ccc(N(Cc2ccc(-c3noc(C(F)(F)F)n3)s2)c2cnccn2)nn1)N1CCC1` [Example FF, 6-(Azetidine-1-carbonyl)-N-(pyrazin-2-yl)-N-({5-[5-(trifluoromethyl)-1,2,4-oxadiazol-3-yl]thiophen-2-yl}methyl)pyridazin-3-amine]: the IC50 in assay [1] is at most 1000 nM; in assay [2] it was at most 500 nM; in assay [3] it was at most 500 nM; in assay [4], at most 10000 nM.
In the case of `O=C(c1ccc(N(Cc2ccc(-c3noc(C(F)(F)F)n3)s2)c2cnccn2)nn1)N1CCCCC1` [Example FG, 6-(Piperidine-1-carbonyl)-N-(pyrazin-2-yl)-N-({5-[5-(trifluoromethyl)-1,2,4-oxadiazol-3-yl]thiophen-2-yl}methyl)pyridazin-3-amine], the half-inhibitory concentration (IC50) is at most 1000 nM in assay [1], at most 500 nM in assay [2], at most 500 nM in assay [3] and above 10000 nM in assay [4].
`O=C(c1ccc(N(Cc2ccc(-c3noc(C(F)(F)F)n3)s2)c2cnccn2)nn1)N1CCC12COC2` [Example FH, 6-{6-Oxa-1-azaspiro[3.3]heptane-1-carbonyl}-N-(pyrazin-2-yl)-N-({5-[5-(trifluoromethyl)-1,2,4-oxadiazol-3-yl]thiophen-2-yl}methyl)pyridazin-3-amine]: the IC50 was at most 1000 nM in assay [1], at most 500 nM in assay [2], at most 500 nM in assay [3] and at most 10000 nM in assay [4].
For `O=C(c1ccc(N(Cc2ccc(-c3noc(C(F)(F)F)n3)s2)c2cnccn2)nn1)N1CCCC1` [Example FI, N-(Pyrazin-2-yl)-6-(pyrrolidine-1-carbonyl)-N-({5-[5-(trifluoromethyl)-1,2,4-oxadiazol-3-yl]thiophen-2-yl}methyl)pyridazin-3-amine], the half-inhibitory concentration (IC50) in assay [1] is at most 1000 nM; in assay [2], at most 500 nM; in assay [3], at most 500 nM; in assay [4], at most 10000 nM.
Turning to `O=C(c1ccc(N(Cc2ccc(-c3noc(C(F)(F)F)n3)s2)c2cnccn2)nn1)N1CCC2(COC2)C1` [Example FJ, 6-{2-Oxa-6-azaspiro[3.4]octane-6-carbonyl}-N-(pyrazin-2-yl)-N-({5-[5-(trifluoromethyl)-1,2,4-oxadiazol-3-yl]thiophen-2-yl}methyl)pyridazin-3-amine], the IC50 in assay [1] is at most 1000 nM; in assay [2], at most 500 nM; in assay [3], at most 500 nM; in assay [4], at most 10000 nM.
For `O=C(c1ccc(N(Cc2ccc(-c3noc(C(F)(F)F)n3)s2)c2cnccn2)nn1)N1CC(O)(C(F)(F)F)C1` [Example FK, 1-{6-[(Pyrazin-2-yl)({5-[5-(trifluoromethyl)-1,2,4-oxadiazol-3-yl]thiophen-2-yl}methyl)amino]pyridazine-3-carbonyl}-3-(trifluoromethyl)azetidin-3-ol], the half-inhibitory concentration (IC50) is at most 500 nM in assay [1], at most 500 nM in assay [2], at most 500 nM in assay [3] and at most 10000 nM in assay [4].
For the compound `Nc1cnnc(N(Cc2ccc(-c3noc(C(F)(F)F)n3)s2)c2cnccn2)c1` [Example FL, N3-(Pyrazin-2-yl)-N3-({5-[5-(trifluoromethyl)-1,2,4-oxadiazol-3-yl]thiophen-2-yl}methyl)pyridazine-3,5-diamine], the IC50 is at most 1000 nM in assay [1], at most 500 nM in assay [2], at most 500 nM in assay [3] and above 10000 nM in assay [4].
Regarding `CC(=O)Nc1cnnc(N(Cc2ccc(-c3noc(C(F)(F)F)n3)s2)c2cnccn2)c1` [Example FM, N-{6-[(Pyrazin-2-yl)({5-[5-(trifluoromethyl)-1,2,4-oxadiazol-3-yl]thiophen-2-yl}methyl)amino]pyridazin-4-yl}acetamide], the concentration for half-maximal inhibition (IC50) in assay [1] is at most 10000 nM; in assay [2] it was at most 500 nM; in assay [3], at most 1000 nM; in assay [4], above 10000 nM.
On to `FC(F)(F)c1nc(-c2ccc(CN(c3cnccn3)c3ccc(CN4CCOCC4)nn3)s2)no1` [Example FN, 6-[(Morpholin-4-yl)methyl]-N-(pyrazin-2-yl)-N-({5-[5-(trifluoromethyl)-1,2,4-oxadiazol-3-yl]thiophen-2-yl}methyl)pyridazin-3-amine], for which the half-inhibitory concentration (IC50) in assay [1] is at most 10000 nM; in assay [2] it was at most 500 nM; in assay [3] it was at most 1000 nM; in assay [4] it was above 10000 nM.
In the case of `[O-][S+]1CCN(Cc2ccc(N(Cc3ccc(-c4noc(C(F)(F)F)n4)s3)c3cnccn3)nn2)CC1` [Example FO, 4-({6-[(Pyrazin-2-yl)({5-[5-(trifluoromethyl)-1,2,4-oxadiazol-3-yl]thiophen-2-yl}methyl)amino]pyridazin-3-yl}methyl)-1lambda4-thiomorpholin-1-one], the 50% inhibitory concentration (IC50) in assay [1] is at most 10000 nM; in assay [2], at most 500 nM; in assay [3], at most 1000 nM; in assay [4], above 10000 nM.
On the same counts, the results for `FC(F)(F)c1nc(-c2ccc(CN(c3cnccn3)c3cc(N4CCOCC4)cnn3)s2)no1` [Example FP, 5-(Morpholin-4-yl)-N-(pyrazin-2-yl)-N-({5-[5-(trifluoromethyl)-1,2,4-oxadiazol-3-yl]thiophen-2-yl}methyl)pyridazin-3-amine] are at most 10000 nM, at most 500 nM, at most 1000 nM and above 10000 nM.
On the same counts, the results for `FC(F)(F)c1nc(-c2ccc(CN(c3cnccn3)c3cc(N4CCCC4)cnn3)s2)no1` [Example FQ, N-(Pyrazin-2-yl)-5-(pyrrolidin-1-yl)-N-({5-[5-(trifluoromethyl)-1,2,4-oxadiazol-3-yl]thiophen-2-yl}methyl)pyridazin-3-amine] are at most 10000 nM, at most 1000 nM, at most 10000 nM and above 10000 nM.
On the same counts, the results for `O=C(c1ccc(N(Cc2ccc(-c3noc(C(F)(F)F)n3)s2)c2cnccn2)nn1)N1C[C@@H]2C[C@H]1C[S@@+]2[O-]` [Example FR, (1S,2R,4S)-5-{6-[(Pyrazin-2-yl)({5-[5-(trifluoromethyl)-1,2,4-oxadiazol-3-yl]thiophen-2-yl}methyl)amino]pyridazine-3-carbonyl}-2-thia-5-azabicyclo[2.2.1]heptan-2-ium-2-olate] are at most 1000 nM, at most 500 nM, at most 500 nM and at most 10000 nM.
For the compound `O=C(c1cnnc(N(Cc2ccc(-c3noc(C(F)(F)F)n3)s2)c2cnccn2)c1)N1CCC1` [Example FS, 5-(Azetidine-1-carbonyl)-N-(pyrazin-2-yl)-N-({5-[5-(trifluoromethyl)-1,2,4-oxadiazol-3-yl]thiophen-2-yl}methyl)pyridazin-3-amine], the IC50 in assay [1] was at most 10000 nM; in assay [2], at most 500 nM; in assay [3], at most 10000 nM; in assay [4] it was above 10000 nM.
